Source: patent US7528274B2, “Acylthiols and component thiol compositions as anti-HIV and anti-retroviral agents” (The United States of America as represented by the …, priority 2001, dated 2009)
Where two headings read alike, the source gives them in different places.

Columns and labels:
[1] = XTT assay, cytotoxicity (cellular growth inhibition) in CEM-SS cells; type: cell-based; details: human
Excerpt: (§1) One exemplary means to determine antiviral activity is with CEM-SS cells and virus (e.g., HIV-1RF) (MOI=0.01) using the XTT (2,3-bis[2-methoxy-4-nitro-5-sulfophenyl]-5-[(phenylamino)carbonyl]-2H-tetrazolium hydroxide) cytoprotection assay, as described by Rice (1993) PNAS 90:9721-9724, and Rice (1997) Antimicrob. Agents Chemother. […] Briefly, cells are infected with HIV-1RF (or other virus to be tested) in the presence of various dilutions of test compounds or control compounds. The cultures are incubated for seven days. […] The cell death is measured by XTT dye reduction. XTT is a soluble tetrazolium dye that measures mitochondrial energy output, similar to MTT. […] Individual assays are done in duplicate using a sister plate method.
as §1, with “{2,3-bis[2-methoxy-4-nitro-5-sulfophenyl]-5- -[(phenylamino)carbonyl]-2H-tetrazolium hydroxide}” for “(2,3-bis[2-methoxy-4-nitro-5-sulfophenyl]-5-[(phenylamino)carbonyl]-2H-tetrazolium hydroxide)”, “Proc. Natl. Acad. Sci. USA 90: 9721-9724,” for “PNAS 90:9721-9724,”, “Agents &” for “Agents”, “and controls.” for “or control compounds.”, “method. […] Compound numbers therein refer to the numbers used in FIG. 1.” for “method.”

[2] = tested on: HIV-1RF; assay: XTT cytoprotection assay, CEM-SS cells infected with HIV-1RF; type: cell-based; details: for EC50: read-out: EC50 (50% cytoprotection)
Excerpt: as §1
as §1, with “{2,3-bis[2-methoxy-4-nitro-5-sulfophenyl]-5- -[(phenylamino)carbonyl]-2H-tetrazolium hydroxide}” for “(2,3-bis[2-methoxy-4-nitro-5-sulfophenyl]-5-[(phenylamino)carbonyl]-2H-tetrazolium hydroxide)”, “Proc. Natl. Acad. Sci. USA 90: 9721-9724,” for “PNAS 90:9721-9724,”, “Agents &” for “Agents”, “and controls.” for “or control compounds.”, “method. […] Compound numbers therein refer to the numbers used in FIG. 1.” for “method.”

[3] = Human immunodeficiency virus 1, 168 h, HIV-1RF, CEM-SS cells, seven days, XTT
[4] = Human immunodeficiency virus 1, CEM-SS, 168 h

| SMILES | IC50 at 7 days [1] [µM] | Therapeutic Index ([2]; HIV-1RF, CEM-SS cells) | EC50 [2, 3] [µM] | EC50 [2, 4] [µM] | EC50 ([2]; HIV-1RF, CEM-SS cells, seven days, XTT) [µM] |
| --- | --- | --- | --- | --- | --- |
| NC(=O)CNC(=O)c1ccccc1SC(=O)OCCBr [Compound 101] | > 316 | 232 | 1.36 | – | – |
| CCCNC(=O)Sc1ccccc1C(=O)NCCC(N)=O [Compound 97] | 29 | 53 | 0.55 | – | – |
| Cc1cc(C)c(C(=O)Sc2ccccc2C(=O)NCCC(N)=O)c(C)c1 [Compound 24] | > 200 | – | – | – | – |
| CC(C)(C)C(=O)Sc1cccc(C(=O)NCCC(N)=O)c1 [Compound 17] | 112 | – | > 100 | – | – |
| NS(=O)(=O)c1ccc(CNC(=O)c2ccccc2SC(=O)NCCCCl)cc1 [Compound 88] | 9 | 19 | 0.48 | – | – |
| CCOC(=O)CCNC(=O)Sc1ccccc1C(=O)NCCC(N)=O [Compound 115] | 117 | 196 | 0.59 | – | – |
| CCNC(=O)Sc1ccccc1C(=O)NCCC(N)=O [Compound 113] | 103 | 148 | 0.69 | – | – |
| NC(=O)CCNC(=O)c1ccccc1SC(=O)OCCBr [Compound 102] | > 316 | 60.6 | 5.21 | – | – |
| NC(=O)CCNC(=O)c1ccccc1SC(=O)c1ccccc1 [Compound 8] | 676 | 205 | 3.3 | – | – |
| NS(=O)(=O)c1ccc(CNC(=O)c2ccccc2SC(=O)OCCCCCl)cc1 [Compound 84] | 64.4 | 27 | 2.36 | – | – |
| NC(=O)CCNC(=O)c1cccc(SC(=O)c2cccnc2)c1 [Compound 18] | > 1000 | >6.7 | 149 | – | – |
| COc1ccc(C(=O)Sc2ccccc2C(=O)NCCC(N)=O)cc1 [Compound 13] | 42 | 11 | 3.7 | – | – |
| CCCCCCNC(=O)Sc1ccccc1C(=O)N[C@H](C)C(N)=O [Compound 121] | 81 | 107 | 0.76 | – | – |
| NC(=O)CNC(=O)c1ccccc1SC(=O)NCCBr [Compound 110] | 5.23 | 3.4 | – | 1.53 | – |
| C[C@@H](NC(=O)c1ccccc1SC(=O)NCCBr)C(N)=O [Compound 89] | 8 | 8.7 | – | 0.92 | – |
| NC(=O)CCNC(=O)c1ccc(Cl)cc1SC(=O)Cc1ccccc1 [Compound 26] | 35 | 14 | 2.5 | – | – |
| CSC(=N)Sc1ccccc1C(=O)NCC(N)=O [Compound 138] | 20 | 31.7 | 0.63 | – | – |
| NC(=O)CCNC(=O)c1ccccc1SC(=O)c1cccnc1 [Compound 19] | 461 | 161 | 2.9 | – | – |
| C[C@@H](NC(=O)c1ccccc1SC(=O)OCCCCCl)C(N)=O [Compound 82] | 200 | 68 | 2.94 | – | – |
| NC(=O)CCNC(=O)c1ccc(Cl)cc1SC(=O)c1cccnc1 [Compound 25] | 573 | 18 | 31.8 | – | – |
| C[C@H](NC(=O)c1ccccc1SC(=O)NCCBr)C(N)=O [Compound 112] | 5.2 | 5 | – | 1.05 | – |
| COc1cccc(C(=O)Sc2ccccc2C(=O)NCCC(N)=O)c1 [Compound 14] | 666 | 251 | 2.6 | – | – |
| CC(C)(C)NC(=O)Sc1ccc(Cl)cc1C(=O)NCCC(N)=O [Compound 140] | 11.3 | 7.1 | 1.6 | – | – |
| C[C@@H](NC(=O)c1ccccc1SC(=O)OCCBr)C(N)=O [Compound 103] | 254 | 76 | 3.34 | – | – |
| CCOC(=O)CNC(=O)Sc1ccccc1C(=O)N[C@@H](C)C(N)=O [Compound 116] | 77.6 | 147 | 0.53 | – | – |
| NC(=O)CCNC(=O)c1ccccc1SC(=O)NCCBr [Compound 111] | 4.9 | 10 | – | 0.48 | – |

| SMILES | IC50 at 7 days [1] [µM] | Therapeutic Index ([2]; HIV-1RF, CEM-SS cells) | EC50 [2, 3] [µM] | EC50 [2, 4] [µM] | EC50 ([2]; HIV-1RF, CEM-SS cells, seven days, XTT) [µM] |
| --- | --- | --- | --- | --- | --- |
| C[C@H](NC(=O)c1ccccc1SC(=O)OCCBr)C(N)=O [Compound 104] | 186 | 160 | 1.16 | – | – |
| CCCCCNC(=O)Sc1ccccc1C(=O)N[C@H](C)C(N)=O [Compound 119] | 54.4 | 179 | 0.3 | – | – |
| CCC(C)C(NC(=O)c1ccccc1SC(=O)OCCCCCl)C(N)=O (stereo not shown) [Compound 83] | 128 | 59 | 2.16 | – | – |
| NC(=O)C1CN1C(=O)c1ccccc1SC(=O)NC1CCCC1 (stereo not shown) [Compound 132] | – | – | – | – | 0.81 |
| CSC(=N)Sc1ccccc1C(=O)N[C@@H](C)C(N)=O [Compound 136] | 20 | 28.6 | 0.7 | – | – |
| COc1cc(C(=O)Sc2ccccc2C(=O)NCCC(N)=O)cc(OC)c1OC [Compound 10] | > 200 | >53 | 3.8 | – | – |
| C[C@H](NC(=O)c1ccccc1SC(=O)OCCCCCl)C(N)=O [Compound 81] | 200 | 97 | 2.07 | – | – |
| CC(C)(C)NC(=O)Sc1ccccc1C(=O)NCC(N)=O [Compound 142] | 20 | 2.9 | 6.9 | – | – |
| CC(C)COC(=O)Sc1ccccc1C(=O)N[C@H](C)C(N)=O [Compound 77] | 230 | 168 | 1.37 | – | – |
| C[C@@H](NC(=O)c1ccccc1SC(=O)NCCCCl)C(N)=O [Compound 87] | 11.4 | 16 | 0.71 | – | – |
| CCCNC(=O)Sc1ccccc1C(=O)N[C@@H](C)C(N)=O [Compound 96] | 27.5 | 21 | 1.32 | – | – |
| CCCCNC(=O)Sc1ccccc1C(=O)NCCS(N)(=O)=O [Compound 130] | 37 | 0.12 | 304 | – | – |
| CCNC(=O)Sc1ccccc1C(=O)N[C@H](C)C(N)=O [Compound 114] | 86 | 203 | 0.42 | – | – |
| CSC(=N)Sc1ccccc1C(=O)NCCC(N)=O [Compound 137] | 20 | 28.2 | 0.71 | – | – |
| CC(C)COC(=O)Sc1ccc(Cl)cc1C(=O)NCCC(N)=O [Compound 141] | 20 | 17.7 | 1.13 | – | – |
| CCCCNC(=O)Sc1ccccc1C(=O)N[C@H](C)C(N)=O [Compound 117] | 32.2 | 64 | 0.51 | – | – |
| COc1ccccc1C(=O)Sc1ccccc1C(=O)NCCC(N)=O [Compound 9] | 790 | 298 | 2.7 | – | – |
| CCCNC(=O)Sc1ccccc1C(=O)N[C@H](C)C(N)=O [Compound 95] | 22.6 | 27 | 0.85 | – | – |
| CCCCNC(=O)Sc1ccccc1C(=O)NCCC(N)=O [Compound 118] | 38.7 | 74 | 0.53 | – | – |
| NC(=O)CNC(=O)c1ccccc1SC(=O)OCCCCCl [Compound 80] | 200 | 65 | 3.07 | – | – |
| NS(=O)(=O)c1ccc(CNC(=O)c2ccccc2SC(=O)Oc2ccc([N+](=O)[O-])cc2)cc1 [Compound 78] | 57 | 36 | 1.58 | – | – |
| Cc1cccc(C(=O)Sc2ccccc2C(=O)NCCC(N)=O)c1 [Compound 20] | 135 | 38 | 3.6 | – | – |
| C[C@H](NC(=O)c1ccccc1SC(=O)NCCCCl)C(N)=O [Compound 86] | 112 | 140 | 0.8 | – | – |
| NC(=O)CNC(=O)c1ccccc1SC(=O)NCCCCl [Compound 85] | 110 | 153 | 0.72 | – | – |
| CSC(=N)Sc1ccccc1C(=O)N[C@H](C)C(N)=O [Compound 139] | 20 | 37.7 | 0.53 | – | – |
| Cc1ccc(C(=O)Sc2ccccc2C(=O)NCCC(N)=O)cc1 [Compound 21] | 197 | 38 | 5.2 | – | – |
